Experimental data taken from the NIST ThermoML archive (doi:10.1016/j.tca.2015.06.017).
Numbers after ± are expanded uncertainties.

Test: xn = mol fraction of the nth substance listed
Details: Liquid, Vibrating tube method

CC(C)CCl [1-chloro-2-methylpropane] + CCCCCCC
mass density [kg/m3]
Details	303.15 K	313.15 K
100 kPa, x2 = 0.0531	851.74 ± 0.24	840.36 ± 0.24
100 kPa, x2 = 0.1023	839.04 ± 0.24	827.85 ± 0.24
100 kPa, x2 = 0.2009	815.06 ± 0.24	804.22 ± 0.24
100 kPa, x2 = 0.3009	792.69 ± 0.24	782.2 ± 0.24
100 kPa, x2 = 0.3981	772.58 ± 0.24	762.38 ± 0.24
100 kPa, x2 = 0.4986	753.31 ± 0.24	743.42 ± 0.25
100 kPa, x2 = 0.5998	735.29 ± 0.25	725.7 ± 0.25
100 kPa, x2 = 0.7038	718.11 ± 0.25	708.77 ± 0.25
100 kPa, x2 = 0.7993	703.45 ± 0.25	694.32 ± 0.25
100 kPa, x2 = 0.8995	689.05 ± 0.25	680.21 ± 0.25
100 kPa, x2 = 0.9507	682.07 ± 0.25	673.34 ± 0.25
2000 kPa, x2 = 0.0531	853.98 ± 0.25	842.7 ± 0.25
2000 kPa, x2 = 0.1023	841.31 ± 0.25	830.21 ± 0.25
2000 kPa, x2 = 0.2009	817.39 ± 0.25	806.67 ± 0.25
2000 kPa, x2 = 0.3009	794.98 ± 0.26	784.62 ± 0.26
2000 kPa, x2 = 0.3981	774.81 ± 0.26	764.76 ± 0.26
2000 kPa, x2 = 0.4986	755.48 ± 0.26	745.75 ± 0.26
2000 kPa, x2 = 0.5998	737.44 ± 0.26	727.98 ± 0.27
2000 kPa, x2 = 0.7038	720.22 ± 0.27	711.05 ± 0.27
2000 kPa, x2 = 0.7993	705.49 ± 0.27	696.57 ± 0.27
2000 kPa, x2 = 0.8995	691.14 ± 0.27	682.44 ± 0.27
2000 kPa, x2 = 0.9507	684.19 ± 0.27	675.59 ± 0.27
5000 kPa, x2 = 0.0531	857.38 ± 0.27	846.39 ± 0.27
5000 kPa, x2 = 0.1023	844.68 ± 0.27	833.87 ± 0.27
5000 kPa, x2 = 0.2009	820.73 ± 0.27	810.25 ± 0.28
5000 kPa, x2 = 0.3009	798.27 ± 0.28	788.13 ± 0.28
5000 kPa, x2 = 0.3981	778.06 ± 0.28	768.2 ± 0.29
5000 kPa, x2 = 0.4986	758.67 ± 0.29	749.13 ± 0.29
5000 kPa, x2 = 0.5998	740.59 ± 0.29	731.29 ± 0.3
5000 kPa, x2 = 0.7038	723.33 ± 0.3	714.28 ± 0.3
5000 kPa, x2 = 0.7993	708.59 ± 0.3	699.76 ± 0.3
5000 kPa, x2 = 0.8995	694.18 ± 0.31	685.54 ± 0.31
5000 kPa, x2 = 0.9507	687.22 ± 0.31	678.7 ± 0.31
7000 kPa, x2 = 0.0531	859.64 ± 0.28	848.82 ± 0.28
7000 kPa, x2 = 0.1023	846.92 ± 0.28	836.28 ± 0.28
7000 kPa, x2 = 0.2009	822.92 ± 0.29	812.64 ± 0.29
7000 kPa, x2 = 0.3009	800.42 ± 0.29	790.49 ± 0.3
7000 kPa, x2 = 0.3981	780.18 ± 0.3	770.54 ± 0.3
7000 kPa, x2 = 0.4986	760.74 ± 0.31	751.42 ± 0.31
7000 kPa, x2 = 0.5998	742.6 ± 0.31	733.56 ± 0.32
7000 kPa, x2 = 0.7038	725.32 ± 0.32	716.53 ± 0.32
7000 kPa, x2 = 0.7993	710.55 ± 0.32	701.96 ± 0.33
7000 kPa, x2 = 0.8995	696.12 ± 0.33	687.72 ± 0.33
7000 kPa, x2 = 0.9507	689.13 ± 0.33	680.86 ± 0.33
10000 kPa, x2 = 0.0531	862.96 ± 0.29	852.24 ± 0.29
10000 kPa, x2 = 0.1023	850.21 ± 0.29	839.68 ± 0.3
10000 kPa, x2 = 0.2009	826.15 ± 0.31	815.97 ± 0.31
10000 kPa, x2 = 0.3009	803.62 ± 0.31	793.76 ± 0.32
10000 kPa, x2 = 0.3981	783.33 ± 0.32	773.76 ± 0.33
10000 kPa, x2 = 0.4986	763.84 ± 0.33	754.58 ± 0.34
10000 kPa, x2 = 0.5998	745.64 ± 0.34	736.65 ± 0.34
10000 kPa, x2 = 0.7038	728.31 ± 0.35	719.62 ± 0.35
10000 kPa, x2 = 0.7993	713.5 ± 0.36	705.01 ± 0.36
10000 kPa, x2 = 0.8995	699.03 ± 0.36	690.72 ± 0.37
10000 kPa, x2 = 0.9507	692.03 ± 0.37	683.8 ± 0.37
20000 kPa, x2 = 0.0531	873 ± 0.33	863.01 ± 0.34
20000 kPa, x2 = 0.1023	860.17 ± 0.34	850.29 ± 0.35
20000 kPa, x2 = 0.2009	835.94 ± 0.36	826.35 ± 0.37
20000 kPa, x2 = 0.3009	813.23 ± 0.38	804.06 ± 0.39
20000 kPa, x2 = 0.3981	792.77 ± 0.4	783.83 ± 0.41
20000 kPa, x2 = 0.4986	773.13 ± 0.41	–
20000 kPa, x2 = 0.5998	754.8 ± 0.43	–
20000 kPa, x2 = 0.7038	737.29 ± 0.45	–
20000 kPa, x2 = 0.7993	722.32 ± 0.46	–
20000 kPa, x2 = 0.8995	707.71 ± 0.47	–
20000 kPa, x2 = 0.9507	700.65 ± 0.48	–
30000 kPa, x2 = 0.0531	882.09 ± 0.37	–
30000 kPa, x2 = 0.1023	869.13 ± 0.39	–
30000 kPa, x2 = 0.2009	844.8 ± 0.42	–
30000 kPa, x2 = 0.3009	821.91 ± 0.44	–
30000 kPa, x2 = 0.3981	801.3 ± 0.47	–
30000 kPa, x2 = 0.4986	781.52 ± 0.49	–
30000 kPa, x2 = 0.5998	763.03 ± 0.51	–
30000 kPa, x2 = 0.7038	745.43 ± 0.54	–
30000 kPa, x2 = 0.7993	730.33 ± 0.56	–
30000 kPa, x2 = 0.8995	715.6 ± 0.57	–
30000 kPa, x2 = 0.9507	708.5 ± 0.58	–
40000 kPa, x2 = 0.0531	890.44 ± 0.4	–
40000 kPa, x2 = 0.1023	877.39 ± 0.42	–
40000 kPa, x2 = 0.2009	852.91 ± 0.46	–
40000 kPa, x2 = 0.3009	829.87 ± 0.5	–
40000 kPa, x2 = 0.3981	809.15 ± 0.53	–
40000 kPa, x2 = 0.4986	789.24 ± 0.56	–
40000 kPa, x2 = 0.5998	770.61 ± 0.59	–
40000 kPa, x2 = 0.7038	752.83 ± 0.62	–
40000 kPa, x2 = 0.7993	737.59 ± 0.65	–
40000 kPa, x2 = 0.8995	722.73 ± 0.67	–
40000 kPa, x2 = 0.9507	715.55 ± 0.68	–
50000 kPa, x2 = 0.0531	898.25 ± 0.43	–
50000 kPa, x2 = 0.1023	885.12 ± 0.46	–
50000 kPa, x2 = 0.2009	860.41 ± 0.5	–
50000 kPa, x2 = 0.3009	837.32 ± 0.55	–
50000 kPa, x2 = 0.3981	816.52 ± 0.59	–
50000 kPa, x2 = 0.4986	796.41 ± 0.63	–
50000 kPa, x2 = 0.5998	777.65 ± 0.67	–
50000 kPa, x2 = 0.7038	759.78 ± 0.7	–
50000 kPa, x2 = 0.7993	744.45 ± 0.74	–
50000 kPa, x2 = 0.8995	729.47 ± 0.77	–
50000 kPa, x2 = 0.9507	722.23 ± 0.78	–
60000 kPa, x2 = 0.0531	905.4 ± 0.45	–
60000 kPa, x2 = 0.1023	892.33 ± 0.48	–
60000 kPa, x2 = 0.2009	867.48 ± 0.54	–
60000 kPa, x2 = 0.3009	844.24 ± 0.6	–
60000 kPa, x2 = 0.3981	823.28 ± 0.65	–
60000 kPa, x2 = 0.4986	803.13 ± 0.69	–
60000 kPa, x2 = 0.5998	784.27 ± 0.74	–
60000 kPa, x2 = 0.7038	766.25 ± 0.78	–
60000 kPa, x2 = 0.7993	750.88 ± 0.82	–
60000 kPa, x2 = 0.8995	735.73 ± 0.86	–
60000 kPa, x2 = 0.9507	728.44 ± 0.87	–
65000 kPa, x2 = 0.0531	908.87 ± 0.46	–
65000 kPa, x2 = 0.1023	895.79 ± 0.5	–
65000 kPa, x2 = 0.2009	870.84 ± 0.56	–
65000 kPa, x2 = 0.3009	847.58 ± 0.62	–
65000 kPa, x2 = 0.3981	826.58 ± 0.67	–
65000 kPa, x2 = 0.4986	806.34 ± 0.72	–
65000 kPa, x2 = 0.5998	787.42 ± 0.77	–
65000 kPa, x2 = 0.7038	769.32 ± 0.82	–
65000 kPa, x2 = 0.7993	753.84 ± 0.86	–
65000 kPa, x2 = 0.8995	738.7 ± 0.9	–
65000 kPa, x2 = 0.9507	731.35 ± 0.92	–
